The record followed here is patent US12180523B2, “Southern green stink bug pheromone synthesis enzymes and uses thereof” (VIRGINIA TECH INTELLECTUAL PROPERTIES, INC., priority 2018, dated 2024).

Experiment [1] concerns the target T1, recombinant NvIDS1 (NvTPS) protein (Nezara viridula, UniProt A0A386JV86).
T1 construct: Full-length NvTPS (NvIDS1) cDNA was cloned into the pEXP5-NT/TOPO (Invitrogen) expression vector; His tag (N-terminal histidine fusion tag from pEXP5-NT/TOPO) (N); made in house; host or cells: E. coli BL21(DE3)pLysS
T1 sequence (A0A386JV86 1-378): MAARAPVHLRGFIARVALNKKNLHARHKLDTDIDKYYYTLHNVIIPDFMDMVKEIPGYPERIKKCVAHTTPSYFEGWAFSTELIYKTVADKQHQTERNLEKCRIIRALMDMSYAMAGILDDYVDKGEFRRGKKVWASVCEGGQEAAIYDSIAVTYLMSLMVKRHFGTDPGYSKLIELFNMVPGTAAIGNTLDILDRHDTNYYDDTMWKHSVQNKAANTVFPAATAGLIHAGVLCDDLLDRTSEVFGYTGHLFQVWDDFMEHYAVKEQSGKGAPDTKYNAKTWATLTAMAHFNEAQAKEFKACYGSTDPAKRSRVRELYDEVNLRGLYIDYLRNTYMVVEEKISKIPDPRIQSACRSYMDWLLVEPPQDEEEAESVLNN
In words: TPS activity assay of purified recombinant NvTPS, products by GC-MS. The experiment is classed as biochemical, N. viridula. Particulars: 50 μM allylic substrate, 30° C., 1 h. The protocol:
Heterologous Expression of Recombinant NvTPS.
TPS activity of purified, recombinant NvTPS protein was determined in assay buffer (see above) with 1 mM DTT and 50 μM allylic substrate [(E,E)-, (Z,E)- or (Z,Z)-FPP] in a total volume of 100 μl and with a100 μl hexane overlay. Upon incubation at 30° C. for 1 h, assays were stopped on ice and compounds extracted by mixing using a vortex at maximum speed for 15 s. Phases were separated by centrifuging at 4000×g for 10 min and the hexane phase was removed and dried over MgSO4. One μL of the hexane extract was analyzed by GC-MS.
Gas Chromatography-Mass Spectrometry Analysis and Determination of Absolute Configuration of NvTPS Products. GC-MS analysis of hexane extracts from assays with crude protein lysates or NvTPS recombinant protein was performed using split injection (5:1 ratio) at an injection temperature of 240° C. Compounds were separated on a GC-2010 gas chromatograph (Shimadzu, Kyoto, Japan) with a 30 m×0.25 mm i.d.×0.25 μm film Zebron ZB-XLB column (Phenomenex, Torrance, CA) coupled to a QP2010S mass spectrometer (Shimadzu). Separation steps were as follows: initial 2 min hold at 40° C., followed by a 5° C./min ramp to 220° C., then a 70° C./min ramp to 240° C. followed by a 2 min hold time at 240° C. Mass spectrometry was performed with a 240° C. ion source temperature, 280° C. interface temperature, electron ionization (El) potential of 70 eV, and scan range of 50 to 400 amu. Helium was used as a carrier gas at 1.9 ml/min.

Experiment [2] deals with crude protein extract from whole male and female bugs. Put plainly: Enzyme activity in crude protein extract from whole bugs. In kind it is biochemical, N. viridula. Particulars: supernatant of homogenized male and female bugs incubated with (E,E)-FPP. The protocol: Enzyme Activity in Crude Protein Assay. Enzyme activity was measured in crude protein extract from whole male and female bugs to determine possible products from enzymes that accept (E,E)-FPP. The supernatant from homogenized bugs was incubated with the substrate and analyzed products extracted by hexane using GC-MS. […] Also, several sesquiterpenes were found in low abundance that were not found in assays of partially purified NvTPS.

Experiment [3] relates to crude protein extracts from tissue associated with the ventral sternites of N. viridula. Put plainly: Terpene synthase activity in crude protein extracts of abdominal cuticle tissue. Particulars: 50 μM (E,E)-FPP, 12 h, 30° C. In kind it is biochemical. The protocol: Crude Protein Extracts of N. viridula. Abdominal cuticles from one mature (14-15 days post molt) adult male and female N. viridula were used for crude protein assays. Insects were fixed with hexane vapor in a screw top jar and dissected in phosphate buffered saline (PBS) (137 mM NaCl, 8.1 mM Na2HPO4, 1.5 mM NaH2PO4, 2.7 mM KCl, pH 7.2). Head, thorax and abdominal soft tissues were removed except for epithelial cells lining the cuticle. Abdominal cuticles were then frozen in liquid nitrogen, pulverized with a mortar and pestle, and suspended in assay buffer (25 mM HEPES, 5 mM MgCl2, 10% glycerol, 1 mM DTT, pH 7). Protein concentrations were determined with a Bradford Assay (Bio-Rad, Hercules, CA) according to the manufacturer's protocol resulting in a protein concentration of 1.2 μg/μl and 0.8 μg/μl for female and male tissue, respectively.
TPS Activity Assay. To determine terpene synthase activity in crude protein extracts of male and female abdominal cuticle tissue, 50 μM (E,E)-FPP was added to protein extracts in assay buffer (see above) containing 50 µg protein at a final volume of 200 μl and with a 200 μl hexane overlay to collect volatiles. Following incubation for 12 h at 30° C., enzyme products were extracted by mixing for 15 s using a vortex and phases were separated by centrifuging at 4000×g for 10 min. One μl of the hexane extract was analyzed by GC-MS. […]

A further experiment concerns the target T2, NvTPS (Nezara viridula, UniProt A0A386JV86).
T2 construct: Full-length NvTPS (NvIDS1) cDNA was cloned into the pEXP5-NT/TOPO (Invitrogen) expression vector; His tag (N-terminal histidine fusion tag from pEXP5-NT/TOPO) (N); made in house; host or cells: E. coli BL21(DE3)pLysS
T2 sequence (A0A386JV86 1-378): T1 sequence (A0A386JV86 1-378)
Put plainly: Kinetic analysis of NvTPS with [1-3H]-(E,E)-FPP. In kind it is biochemical, N. viridula. Particulars: (E,E)-FPP as the substrate. The protocol: To determine the apparent Km value of NvTPS for (E,E)-FPP, […] of recombinant protein was incubated with increasing concentrations of [1-3H]-(E,E)-FPP (64 ρCi mmol-1) in a total volume of […]. Assays were incubated at 30° C. for 5 min prior to extraction of the enzyme product with 250 μl hexane. Assays were performed in triplicate. Quantification of the radioactive product was as described by Tholl et al. (2005. Plant. J. 42:757-771). The Km value was calculated by rectangular hyperbolic regression analysis using Hyperbolic Regression Analysis software (HYPER 1.01) (J. S. Easterby, University of Liverpool).

In experiment [4] the target is recombinant NvIDS2 (NvFPPS) (Nezara viridula, UniProt A0A386JVA3). As to conditions: 50 μM IPP and 50 μM DMAPP, 30° C., 2 h, LC-MS.
Description: In preparation for enzyme assays, a buffer exchange to 25 mM 3-(N-morpholino)-2-hydroxypropanesulfonic acid (MOPSO, pH 7.2, 10% [v/v] glycerol, 1 mM DTT, 5 mM MgCl2) was conducted on PD-10 Desalting Columns (GE Healthcare Life Sciences, Pittsburgh, PA).
IDS Activity Assay and Analysis. […] Upon incubation at 30° C. for 2 h, IDS enzyme products were analyzed on an Agilent 1260 HPLC system (Agilent Technologies) coupled to an API 5000 triple-quadrupole mass spectrometer (AB Sciex Instruments) following the protocol described by Beran et al. 2016.
The target in another experiment is NvIDS1 (NvTPS) (Nezara viridula, UniProt A0A386JV86). As to conditions: IPP and DMAPP as substrates.

Sequence of recombinant NvIDS2 (NvFPPS) (A0A386JVA3 whole entry): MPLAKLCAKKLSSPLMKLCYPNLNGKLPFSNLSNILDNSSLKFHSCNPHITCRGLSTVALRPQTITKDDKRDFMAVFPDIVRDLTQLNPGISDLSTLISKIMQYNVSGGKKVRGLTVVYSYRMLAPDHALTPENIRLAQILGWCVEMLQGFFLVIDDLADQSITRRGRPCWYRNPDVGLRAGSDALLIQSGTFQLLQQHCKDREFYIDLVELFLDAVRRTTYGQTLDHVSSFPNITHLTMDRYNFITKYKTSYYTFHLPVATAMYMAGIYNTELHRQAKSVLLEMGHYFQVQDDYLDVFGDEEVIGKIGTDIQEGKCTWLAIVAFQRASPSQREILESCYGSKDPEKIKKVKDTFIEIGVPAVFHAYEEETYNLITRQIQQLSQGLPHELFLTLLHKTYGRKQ

Turning to `CC(C)=CCC/C(C)=C/CC/C(C)=C\COP(=O)(O)OP(=O)(O)O` [(Z,E)-FPP], the “enzymatic products of NvIDS1 (TPS activity)” value (from here on “enzymatic products of NvIDS1”) in experiment [1] is listed as “No enzymatic products were detected”.

On to `CC(C)=CCC/C(C)=C\CC/C(C)=C\COP(=O)(O)OP(=O)(O)O` [(Z,Z)-FPP], for which the “enzymatic products of NvIDS1” value in experiment [1] is reported as “No enzymatic products were detected”.

Turning to `CC(C)=CCC/C(C)=C/CC/C(C)=C/COP(=O)(O)OP(=O)(O)O` [(E,E)-FPP, (E,E)-farnesyl diphosphate], the “products in crude protein extract from whole bugs, GC-MS” value in experiment [2] is recorded as “(Z)-α-bisabolene present in crude protein from males but not females”. For the same molecule, the “enzymatic products of NvIDS1” value in experiment [1] was “(Z)-α-bisabolene as the main product”. The “TPS activity in crude protein extract, products by GC-MS” value is listed as “only little activity” in experiment [3] (extracts from mature females) and “formation of (Z)-α-bisabolene” in experiment [3] (extracts from mature males). At NvTPS, the Vmax is on record as 11.83±2.14 pkat/mg. In addition, the Km on NvTPS (30° C., 5 min, triplicate, read-out: apparent Km value) is 0.95 ± 0.37 µM.

Turning to isopentenyl diphosphate [IPP], in experiment [4], the “IDS product of NvIDS2” value is recorded as “(E,E)-FPP as the sole product”. The “IDS activity of NvIDS1” value at NvIDS1 (NvTPS) is on record as “no activity was observed”.

For orientation: Km means the concentration of substrate that gives half-maximal velocity.
